This is an account of results in patent publication US9815865B2, “Preparations of hydrophobic therapeutic agents, methods of manufacture and use thereof” (Aciex Therapeutics, Inc., priority 2013, dated 2017).

This data set in a line: Thermal analysis (DSC/TGA). Type of data set: physicochemical. Here is the method:
The table below summarizes the testing conditions and parameters for the simultaneous thermal analysis tests. The samples were (a) Fluticasone Propionate nanocrystals, and (b) Fluticasone Propionate, stock material. The specimens were tested under a heating rate of 10° C./min starting at 30° C. until reaching a final temperature of 350° C. This process was repeated for each specimen. The experiments were performed at EBATCO, LLC, Eden Prairie, Minn.
Thermal properties of the TA particles from Example 9 were investigated using a SHIMADZU® DSC-60 and TGA-50.
Approximately 10 mg of sample was analyzed in an open aluminum pan, and heated at scanning rate of 10° C.·min^−1 from room temperature to 320° C. […] Peak of the heat of melting is at 289.42° C., with ΔHm=83.50 J/g. In comparison, peak of the heat of melting for the nanocrystals produced by the process described in Example 9 is at 275.78° C., with ΔHm=108.45 J/g (FIG. 34).

As to `CC1(C)O[C@@H]2C[C@H]3[C@@H]4CCC5=CC(=O)C=C[C@]5(C)[C@@]4(F)[C@@H](O)C[C@]3(C)[C@]2(C(=O)CO)O1` [Stock TA, as purchased], the “Tm (Melting Point)” value was 289.61 °C.
